In BindingDB's records for doi:10.1016/j.bmcl.2007.04.071 (Berlex Biosciences, 2007):

Biological target: T1, 3-phosphoinositide-dependent protein kinase 1 (Homo sapiens, UniProt O15530)
T1 sequence (O15530 whole entry): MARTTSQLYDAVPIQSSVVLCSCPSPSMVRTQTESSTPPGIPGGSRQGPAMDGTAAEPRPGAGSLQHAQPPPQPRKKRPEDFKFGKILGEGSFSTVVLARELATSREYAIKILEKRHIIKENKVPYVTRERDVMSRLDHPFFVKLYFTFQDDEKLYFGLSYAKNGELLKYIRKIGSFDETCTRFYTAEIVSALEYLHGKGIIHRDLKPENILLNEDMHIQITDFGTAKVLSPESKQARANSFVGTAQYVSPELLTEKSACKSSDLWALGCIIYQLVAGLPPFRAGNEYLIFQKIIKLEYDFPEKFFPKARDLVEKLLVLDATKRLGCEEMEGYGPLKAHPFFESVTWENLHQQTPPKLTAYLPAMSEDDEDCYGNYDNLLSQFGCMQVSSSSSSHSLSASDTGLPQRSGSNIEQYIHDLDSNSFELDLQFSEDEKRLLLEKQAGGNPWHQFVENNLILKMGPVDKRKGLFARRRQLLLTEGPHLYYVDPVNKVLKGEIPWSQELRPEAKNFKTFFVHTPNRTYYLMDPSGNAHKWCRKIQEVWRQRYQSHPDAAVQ
Assay: PDK1-mediated AKT2 Activation Assay (cAKT2 33P-SPA)
Conditions: pH 7.2; 22 °C

Molecule O=C1Nc2ccc(-c3nnn[nH]3)cc2C1=Cc1ccc[nH]1 [(3Z)-3-(1H-pyrrol-2-ylmethylidene)-5-(1H-1,2,3,4-tetrazol-5-yl)-2,3-dihydro-1H-indol-2-one] has an IC50 of 200 nM.
